Results: the supplement of paper PMC10307832

Experiments:
Test in all cases: relative viability (nuclei count vs DMSO), 5 days (fraction); higher = more cells survive
[1] = compound: C1COCCN1C2=NC(=NC3=C2OC4=C3C=CC=N4)C5=CC(=CC=C5)NC(=O)C6=CN=C(C=C6)N + CC1(C)CCC(c2ccc(Cl)cc2)=C(CN2CCN(c3ccc(C(=O)NS(=O)(=O)c4ccc(N[C@H](CCN5CCOCC5)CSc5ccccc5)c(S(=O)(=O)C(F)(F)F)c4)cc3)CC2)C1 [Navitoclax] (partner 0.5 µM)
Outline: (§1)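 Nuclei were stained with Hoechst during a one-step fixation (final 0.05% Triton X-100, 1% formaldehyde, 1 ug/ml Hoechst) carried out 5 days after dosing, then counted on 4× images. The cells, lung cancer lines in 1536-well plates, had been dosed by pin tool the day after seeding with one drug alone or a fixed anchor-drug dose plus five library-drug doses (not always all listed) in √10 steps. Relative viability is the nuclei count in treated wells divided by that in vehicle wells, and each value is the median of duplicate plates.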

[2] = compound: Nc1ccccc1NC(=O)c1ccc(CNC(=O)OCc2cccnc2)cc1 [Entinostat] + Cc1nc(NC(=O)N2CCC[C@H]2C(N)=O)sc1-c1ccnc(C(C)(C)C(F)(F)F)c1 [Alpelisib] (partner 2 µM)
Outline: as §1

[3] = compound: Nc1ccccc1NC(=O)c1ccc(CNC(=O)OCc2cccnc2)cc1 [Entinostat] + Cc1cc(Nc2cc(N3CCN(C)CC3)nc(Sc3ccc(NC(=O)C4CC4)cc3)n2)n[nH]1 [Tozasertib] (partner 0.1 µM)
Outline: as §1

[4] = compound: Nc1ccccc1NC(=O)c1ccc(CNC(=O)OCc2cccnc2)cc1 [Entinostat] + CC1(C)CCC(c2ccc(Cl)cc2)=C(CN2CCN(c3ccc(C(=O)NS(=O)(=O)c4ccc(N[C@H](CCN5CCOCC5)CSc5ccccc5)c(S(=O)(=O)C(F)(F)F)c4)cc3)CC2)C1 [Navitoclax] (partner 0.5 µM)
Outline: as §1

## NCI-H1666
[1]; first compound 0.02 µM
  relative viability: 0.856
[1]; first compound 0.06325 µM
  relative viability: 0.96
[1]; first compound 0.2 µM
  relative viability: 0.722
[1]; first compound 0.6325 µM
  relative viability: 0.687
[1]; first compound 2 µM
  relative viability: 0.573
[2]; first compound 0.02 µM
  relative viability: 1.21
[2]; first compound 0.06325 µM
  relative viability: 0.856
[2]; first compound 0.2 µM
  relative viability: 0.872
[2]; first compound 0.6325 µM
  relative viability: 0.318
[2]; first compound 2 µM
  relative viability: 0.322
[3]; first compound 0.02 µM
  relative viability: 0.562
[3]; first compound 0.06325 µM
  relative viability: 0.535
[3]; first compound 0.2 µM
  relative viability: 0.471
[3]; first compound 0.6325 µM
  relative viability: 0.405
[3]; first compound 2 µM
  relative viability: 0.346
[4]; first compound 0.02 µM
  relative viability: 1.13
[4]; first compound 0.06325 µM
  relative viability: 1.09
[4]; first compound 0.2 µM
  relative viability: 0.861
[4]; first compound 0.6325 µM
  relative viability: 0.463
[4]; first compound 2 µM
  relative viability: 0.277

## NCI-H1734
[1]; first compound 0.02 µM
  relative viability: 0.838
[1]; first compound 0.06325 µM
  relative viability: 0.99
[1]; first compound 0.2 µM
  relative viability: 0.87
[1]; first compound 0.6325 µM
  relative viability: 0.821
[1]; first compound 2 µM
  relative viability: 0.441
[2]; first compound 0.02 µM
  relative viability: 0.765
[2]; first compound 0.06325 µM
  relative viability: 0.779
[2]; first compound 0.2 µM
  relative viability: 0.681
[2]; first compound 0.6325 µM
  relative viability: 0.737
[2]; first compound 2 µM
  relative viability: 0.581
[3]; first compound 0.02 µM
  relative viability: 0.25
[3]; first compound 0.06325 µM
  relative viability: 0.296
[3]; first compound 0.2 µM
  relative viability: 0.267
[3]; first compound 0.6325 µM
  relative viability: 0.215
[3]; first compound 2 µM
  relative viability: 0.22
[4]; first compound 0.02 µM
  relative viability: 0.87
[4]; first compound 0.06325 µM
  relative viability: 0.874
[4]; first compound 0.2 µM
  relative viability: 0.86
[4]; first compound 0.6325 µM
  relative viability: 0.701
[4]; first compound 2 µM
  relative viability: 0.412

## NCI-H1755
[1]; first compound 0.02 µM
  relative viability: 0.987
[1]; first compound 0.06325 µM
  relative viability: 1.13
[1]; first compound 0.2 µM
  relative viability: 1.05
[1]; first compound 0.6325 µM
  relative viability: 0.861
[1]; first compound 2 µM
  relative viability: 0.561
[2]; first compound 0.02 µM
  relative viability: 0.87
[2]; first compound 0.06325 µM
  relative viability: 0.921
[2]; first compound 0.2 µM
  relative viability: 0.838
[2]; first compound 0.6325 µM
  relative viability: 0.512
[2]; first compound 2 µM
  relative viability: 0.353
[3]; first compound 0.02 µM
  relative viability: 0.603
[3]; first compound 0.06325 µM
  relative viability: 0.505
[3]; first compound 0.2 µM
  relative viability: 0.464
[3]; first compound 0.6325 µM
  relative viability: 0.361
[3]; first compound 2 µM
  relative viability: 0.357
[4]; first compound 0.02 µM
  relative viability: 1.05
[4]; first compound 0.06325 µM
  relative viability: 0.954
[4]; first compound 0.2 µM
  relative viability: 0.806
[4]; first compound 0.6325 µM
  relative viability: 0.451
[4]; first compound 2 µM
  relative viability: 0.332

## NCI-H1793
[1]; first compound 0.02 µM
  relative viability: 0.398
[1]; first compound 0.06325 µM
  relative viability: 0.523
[1]; first compound 0.2 µM
  relative viability: 0.416
[1]; first compound 0.6325 µM
  relative viability: 0.655
[1]; first compound 2 µM
  relative viability: 0.375
[2]; first compound 0.02 µM
  relative viability: 0.584
[2]; first compound 0.06325 µM
  relative viability: 0.79
[2]; first compound 0.2 µM
  relative viability: 0.583
[2]; first compound 0.6325 µM
  relative viability: 0.621
[2]; first compound 2 µM
  relative viability: 0.388
[3]; first compound 0.02 µM
  relative viability: 0.309
[3]; first compound 0.06325 µM
  relative viability: 0.308
[3]; first compound 0.2 µM
  relative viability: 0.284
[3]; first compound 0.6325 µM
  relative viability: 0.205
[3]; first compound 2 µM
  relative viability: 0.175
[4]; first compound 0.02 µM
  relative viability: 0.405
[4]; first compound 0.06325 µM
  relative viability: 0.599
[4]; first compound 0.2 µM
  relative viability: 0.405
[4]; first compound 0.6325 µM
  relative viability: 0.374
[4]; first compound 2 µM
  relative viability: 0.218

## NCI-H1915
[1]; first compound 0.02 µM
  relative viability: 0.757
[1]; first compound 0.06325 µM
  relative viability: 0.838
[1]; first compound 0.2 µM
  relative viability: 0.824
[1]; first compound 0.6325 µM
  relative viability: 0.836
[1]; first compound 2 µM
  relative viability: 0.873
[2]; first compound 0.02 µM
  relative viability: 1.07
[2]; first compound 0.06325 µM
  relative viability: 1.08
[2]; first compound 0.2 µM
  relative viability: 1.05
[2]; first compound 0.6325 µM
  relative viability: 0.816
[2]; first compound 2 µM
  relative viability: 0.402
[3]; first compound 0.02 µM
  relative viability: 0.446
[3]; first compound 0.06325 µM
  relative viability: 0.385
[3]; first compound 0.2 µM
  relative viability: 0.338
[3]; first compound 0.6325 µM
  relative viability: 0.267
[3]; first compound 2 µM
  relative viability: 0.212
[4]; first compound 0.02 µM
  relative viability: 0.809
[4]; first compound 0.06325 µM
  relative viability: 0.716
[4]; first compound 0.2 µM
  relative viability: 0.813
[4]; first compound 0.6325 µM
  relative viability: 0.613
[4]; first compound 2 µM
  relative viability: 0.283

## NCI-H1944
[1]; first compound 0.02 µM
  relative viability: 1.03
[1]; first compound 0.06325 µM
  relative viability: 1.04
[1]; first compound 0.2 µM
  relative viability: 0.957
[1]; first compound 0.6325 µM
  relative viability: 0.841
[1]; first compound 2 µM
  relative viability: 0.858
[2]; first compound 0.02 µM
  relative viability: 0.81
[2]; first compound 0.06325 µM
  relative viability: 0.774
[2]; first compound 0.2 µM
  relative viability: 0.556
[2]; first compound 0.6325 µM
  relative viability: 0.422
[2]; first compound 2 µM
  relative viability: 0.273
[3]; first compound 0.02 µM
  relative viability: 0.224
[3]; first compound 0.06325 µM
  relative viability: 0.215
[3]; first compound 0.2 µM
  relative viability: 0.204
[3]; first compound 0.6325 µM
  relative viability: 0.162
[3]; first compound 2 µM
  relative viability: 0.132
[4]; first compound 0.02 µM
  relative viability: 0.985
[4]; first compound 0.06325 µM
  relative viability: 0.998
[4]; first compound 0.2 µM
  relative viability: 0.938
[4]; first compound 0.6325 µM
  relative viability: 0.485
[4]; first compound 2 µM
  relative viability: 0.311

## NCI-H1975
[1]; first compound 0.02 µM
  relative viability: 1.31
[1]; first compound 0.06325 µM
  relative viability: 1.17
[1]; first compound 0.2 µM
  relative viability: 1.05
[1]; first compound 0.6325 µM
  relative viability: 1.13
[1]; first compound 2 µM
  relative viability: 0.422
[2]; first compound 0.02 µM
  relative viability: 0.454
[2]; first compound 0.06325 µM
  relative viability: 0.38
[2]; first compound 0.2 µM
  relative viability: 0.38
[2]; first compound 0.6325 µM
  relative viability: 0.247
[2]; first compound 2 µM
  relative viability: 0.204
[3]; first compound 0.02 µM
  relative viability: 0.516
[3]; first compound 0.06325 µM
  relative viability: 0.352
[3]; first compound 0.2 µM
  relative viability: 0.249
[3]; first compound 0.6325 µM
  relative viability: 0.122
[3]; first compound 2 µM
  relative viability: 0.115
[4]; first compound 0.02 µM
  relative viability: 0.906
[4]; first compound 0.06325 µM
  relative viability: 0.782
[4]; first compound 0.2 µM
  relative viability: 0.751
[4]; first compound 0.6325 µM
  relative viability: 0.289
[4]; first compound 2 µM
  relative viability: 0.188

## NCI-H1993
[1]; first compound 0.02 µM
  relative viability: 0.819
[1]; first compound 0.06325 µM
  relative viability: 1.06
[1]; first compound 0.2 µM
  relative viability: 0.822
[1]; first compound 0.6325 µM
  relative viability: 0.874
[1]; first compound 2 µM
  relative viability: 0.763
[2]; first compound 0.02 µM
  relative viability: 0.674
[2]; first compound 0.06325 µM
  relative viability: 0.704
[2]; first compound 0.2 µM
  relative viability: 0.733
[2]; first compound 0.6325 µM
  relative viability: 0.695
[2]; first compound 2 µM
  relative viability: 0.728
[3]; first compound 0.02 µM
  relative viability: 0.615
[3]; first compound 0.06325 µM
  relative viability: 0.605
[3]; first compound 0.2 µM
  relative viability: 0.519
[3]; first compound 0.6325 µM
  relative viability: 0.542
[3]; first compound 2 µM
  relative viability: 0.487
[4]; first compound 0.02 µM
  relative viability: 0.869
[4]; first compound 0.06325 µM
  relative viability: 0.857
[4]; first compound 0.2 µM
  relative viability: 0.789
[4]; first compound 0.6325 µM
  relative viability: 0.841
[4]; first compound 2 µM
  relative viability: 0.73
